Read-outs that look alike come from different tables or passages of the source.

The conditions of data set [1]: cardiac sensitization tests; comparison compound; cited from earlier work.
A short description of data set [2]: Boiling point. It is filed as physicochemical. Particulars: for normal boiling point: trans- vs cis-isomer. The procedure: In addition, preferred cover gas compositions of the present invention comprise […] compounds wherein each compound present in more than an insubstantial amount has a boiling point of less than about 25° C., and even more preferably less than about 0° C. Cover gases that have boiling points close to or above room temperature (i.e. which are liquids at room temperature) typically require additional metering equipment to disperse the cover gas material in a controlled fashion onto the surface of the molten metal.

For data set [3], the system named is test subject (e.g. mice). To be noted: single 4-hour exposure; comparison compound; cited from earlier work.
The nature of data set [4]: Mg cover gas test: magnesium pieces in quartz tube, oven heated to about 700° C. under cover gas flow, visual inspection. To be noted: for relative performance as cover gas: at about 0.5% by volume; for performance as cover gas: concentrations at or above about 1.5% by volume. On the procedure:
A quartz tube having a well was equipped with a metered source of cover gas and a thermocouple which was placed in the well. The well was filled with about 0.2 to 0.3 g of solid magnesium pieces. The cover gas was a mixture of air (a carrier gas) and trans-HFO-1234ze. […]
The tube containing the magnesium was placed in an oven. A flow of cover gas through the tube and over the well containing the magnesium was then established at about 1 liter/minute. The oven was then heated to about 700° C. The flow of cover gas proceeded until a surface film was formed on the magnesium or the magnesium ignited.
After the test was complete, the magnesium was removed from the oven and visually inspected to determine the quality of the cover gas.
The experiments of Examples 1-5 were repeated, except that the cover gas contained […] SF6 or HFC-134a.

The nature of data set [5]: Toxicity, stated in words (no method given). To be noted: comparison in words, found by applicants.
In data set [6] the test system is test subject (e.g. mice). Nature of the data set: 4-hour LC-50 (concentration in air that kills 50% of test subjects, single exposure). The data set is classed as in vivo. Particulars: single 4-hour exposure. On the procedure:
Preferably, fluoroolefins used in the present compositions have low or no toxicity. In this regard, it is preferred that fluoroolefin components that a present in the compositions in more than an insubstantial amount have a LC-50 value of at least about 100,000 ppm, and more preferably at least about 200,000 ppm. As used herein, the term “LC-50 value” means the concentration of the fluoroolefin in air that will kill 50% of test subject (e.g. mice) when administered as a single exposure (e.g. 4 hours). […] For comparison, C2F5C(O)CF(CF3)2 (a fluoroketone cover gas marketed by Minnesota Mining and Manufacturing Co. of St. Paul, Minn., under the tradename Novec™) has a 4-hour LC-50 of about 100,000.

For data set [7] the following is noted: background statement in words; cited from earlier work.
Setting [8] is: 1.5 Vol. % of F-Source in Air, about 700° C.
The mark [9] stands for this setting: 4.5 Vol. % of F-Source in Air, about 700° C.

`O=C(C(F)(F)C(F)(F)F)C(F)(C(F)(F)F)C(F)(F)F` [C2F5C(O)CF(CF3)2]: the no-observed-adverse-effect level (NOAEL) in data set [1] was 10 vol. %. Further, the “Boiling Point (° C.)” value in data set [2] (Table A) stood at 49 °C. The “4-hour LC-50” value in data set [3] is on record as “about 100,000 ppm”.

As for `FC(F)(F)C(F)(F)F` [C2F6], the “Boiling Point (° C.)” value in data set [2] (Table A) was −78 °C.

For `O=C=O` [CO2, carbon dioxide], in data set [2], the “Boiling Point (° C.)” value was −78 °C.

`FCC(F)(F)F` [HFC-134a, 1,1,1,2-tetrafluoroethane]: the “Boiling Point (° C.)” value in data set [2] (Table A) is −26 °C. The “Quality of Mg Protection” value is listed as “most brown specks, protected in general” in data set [4] (0.10 Vol. % of F-Source in Air, about 700° C.); “white coating with no brown spots” in data set [4] (0.60 Vol. % of F-Source in Air, about 700° C.); “white coating; pieces not stuck together” in data set [4] (setting [8]); “white coating; pieces not stuck together” in data set [4] (setting [9]). Moreover, the “relative performance as cover gas” value in data set [4] is reported as “performing better than SF6”. In data set [4], the “performance as cover gas” value is reported as “performed well”.

Consider `CC(F)F` [HFC-152a, difluoroethane], for which the “Boiling Point (° C.)” value in data set [2] (Table A) is −25 °C.

As for `C=C(Cl)C(F)(F)F` [HFCO-1233xf, 1,1,1-trifluoro-2-chloro-propene], the “Boiling Point (° C.)” value in data set [2] (Table A) was “+12 °C”.

`FC(F)=CC(F)(F)F` [HFO-1225zc, CF3CH═CF2]: in data set [5], the “relative toxicity between isomers” value is “much more toxic”.

Regarding `C=C(F)C(F)(F)F` [HFO-1234yf, 1,1,1,2-tetrafluoropropene], the “Boiling Point (° C.)” value in data set [2] (Table A) is −30 °C. Moreover, in data set [6], the “4-hour LC-50” value is “at least 200,000 ppm”.

Consider `FC=CC(F)(F)F` [HFO-1234ze, 1,1,1,3-tetrafluoropropene], for which, in data set [6], the “4-hour LC-50” value is given as “at least 100,000 ppm”.

On to `FN(F)F` [NF3, nitrogen trifluoride], for which, in data set [2] (Table A), the “Boiling Point (° C.)” value is −121 °C. Also, the “toxicity (known)” value in data set [7] is “toxic and/or hazardous”.

Regarding `FS(F)(F)(F)(F)F` [SF6, sulfurhexafluoride], in data set [2] (Table A), the “Boiling Point (° C.)” value was −82 °C. Further, the “toxicity (known)” value in data set [7] is recorded as “non-toxic”. Further, the “Quality of Mg Protection” value in data set [4] (0.11 Vol. % of F-Source in Air, about 700° C.) is reported as “failure; Mg ignited”; in data set [4] (0.20 Vol. % of F-Source in Air, about 700° C.) it was “several brownish regions, very little luster,”; in data set [4] (0.43 Vol. % of F-Source in Air, about 700° C.), “coating less white; brownish regions;”; in data set [4] (setting [8]), “white coating; pieces not stuck together”; in data set [4] (setting [9]), “white coating; pieces not stuck together”. In addition, in data set [4], the “performance as cover gas” value is given as “performed well”.

In the case of `O=S(=O)(F)F` [SO2F2, sulfuryl fluoride], the “Boiling Point (° C.)” value in data set [2] (Table A) was −55 °C. The “toxicity (known)” value in data set [7] is listed as “toxic and/or hazardous”.

For `FB(F)F` [boron trifluoride (BF3), boron trifluoride], the “toxicity (known)” value in data set [7] was “very toxic”.

With `FC(F)(F)/C=C\Cl` [cis-HFCO-1233zd, cis-1,1,1-trifluoro-3-chloro-propene], the “Boiling Point (° C.)” value in data set [2] (Table A) was “+19 °C”.

Take `F/C=C(\F)C(F)(F)F` [cis-HFO-1225ye, cis-1,1,1,2,3-pentafluoropropene]: the “relative toxicity between isomers” value in data set [5] is “relatively low degree of toxicity”.

Consider `F/C=C(\F)C(F)F` [cis-HFO-1234ye], for which the “Boiling Point (° C.)” value in data set [2] was “+2 °C”.

Take `FC=CC(F)(F)F` [cis-HFO-1234ze, 1,1,1,3-tetrafluoropropene]: in data set [2], the normal boiling point came to 9 °C.

For the compound `O=NF` [nitrosyl fluoride], the “toxicity (known)” value in data set [7] is on record as “toxic and/or hazardous”.

On to `FC(F)(F)/C=C/Cl` [trans-HFCO-1233zd, trans-1,1,1-trifluoro-3-chloro-propene], for which the “Boiling Point (° C.)” value in data set [2] (Table A) is “+19 °C”.

For the compound `F/C=C/C(F)(F)F` [trans-HFO-1234ze, trans-1,3,3,3-tetrafluoropropene], the “relative toxicity between isomers” value in data set [5] is given as “less toxic than the cis-isomer”. Besides, the “Boiling Point (° C.)” value in data set [2] (Table A) was −18.4 °C. The normal boiling point in data set [2] is −18.4 °C. Also, the “Quality of Mg Protection” value in data set [4] (0.09 Vol. % of F-Source in Air, about 700° C.) is “a few brown specks, well protected in general”; in data set [4] (0.26 Vol. % of F-Source in Air, about 700° C.) it was “white with dark spots, no pieces stuck together”; in data set [4] (0.46 Vol. % of F-Source in Air, about 700° C.) it was “white coating with no brown spots”; in data set [4] (setting [8]), “white coating; pieces not stuck together”; in data set [4] (setting [9]) it was “white coating; pieces not stuck together”. In addition, the “protection of magnesium (visual inspection)” value in data set [4] (Example 1: about 4.5% by volume in air, about 700° C.) is “well protected”; in data set [4] (Example 2: about 1.5% by volume in air), “well protected”; in data set [4] (Example 3: about 0.5% by volume in air), “well protected”; in data set [4] (Example 4: about 0.2% by volume in air), “well protected”; in data set [4] (Example 5: about 0.1% by volume in air) it was “protected in general”. Further, the “relative performance as cover gas” value in data set [4] is on record as “performing better than HFC-134a”. Further, the “performance as cover gas” value in data set [4] was “performed well”.

Consider methoxy-nonafluorobutane [HFE-7100], for which the “Boiling Point (° C.)” value in data set [2] (Table A) was 61 °C.

For orientation: NOAEL means the highest dose or exposure tested at which no adverse effect was seen.
